The record followed here is PubChem BioAssay AID1508612.

The data set can be described thus: passive permeability, PAMPA, ADME assay (AID 1508612). Particulars: pH 7.4, 30.0 min, 50.0 µM. For orientation: The PAMPA barrier holds no transporters, so it reflects passive diffusion.

The Papp is the rate of passage across a membrane or cell layer, normalised by area and donor concentration. Low readings indicate poor permeation, high ones ready permeation. Take `Cc1cc(C)nc(NC(=S)N2CCN(c3cc(C(F)(F)F)nc4ccccc34)CC2)c1`: the Papp is above 1000 ×10⁻⁶ cm/s.

In turn, `Cc1ccc(C(=O)N2CCc3sc(C(=O)NC(C)c4ccccc4)cc3C2)cc1` (centres undefined) returned an apparent permeability coefficient (Papp) of 799 ×10⁻⁶ cm/s.

In the case of `Cc1ccc(-c2ccc(CNc3nc(-c4ccccc4C(C)C)ncc3C)cc2)cn1`, the apparent permeability (Papp) amounted to 824 ×10⁻⁶ cm/s.

Regarding `O=C(Nc1ccc(F)c(C(F)(F)F)c1)Nc1nnc(-c2ccncc2)s1`, the apparent permeability coefficient (Papp) came to 38.5 ×10⁻⁶ cm/s.

In turn, `CCCS(=O)(=O)c1nc(NC2CC2)cc(-c2ccc3c(ccn3C3CC(C)(C)NC(C)(C)C3)c2)n1` showed a Papp of 107 ×10⁻⁶ cm/s.

In turn, `O=C(Nc1nc(-c2ccccc2)cs1)c1ccncc1NS(=O)(=O)c1ccc(Cl)cc1` returned an apparent permeability (Papp) of 294 ×10⁻⁶ cm/s.

In turn, `CC[C@@](C)(Nc1ccnc(-c2c[nH]c3ncccc23)n1)C(=O)NCC(F)(F)F` registered a Papp of 612 ×10⁻⁶ cm/s.

As to `Cc1nn2c(c1-c1ccccc1-c1ccccc1)N(Cc1ccc(C(=O)O)s1)CCC2`, the apparent permeability coefficient (Papp) was found to be 109 ×10⁻⁶ cm/s.

Regarding `CC(NCc1ccc2c(c1)nc(NC(=O)c1ccc(-c3cn[nH]c3)s1)n2CC(C)(C)O)C(C)(C)C` (centres undefined), the apparent permeability coefficient (Papp) came out at 820 ×10⁻⁶ cm/s.

`Cc1cc(Cl)ccc1COc1ccnn1-c1cc(C(=O)O)ccn1` came in with a Papp of 5.16 ×10⁻⁶ cm/s.

In the case of `COc1ncccc1-c1cc2c(ccn2CC2CCN([S+](C)(=O)[O-])CC2)c(N2CCOCC2)n1`, the Papp was above 1000 ×10⁻⁶ cm/s.

`O=C(Cc1nc2ccc(Cl)cc2[nH]1)Nc1ccc(S(=O)(=O)Nc2nccs2)cc1`: the apparent permeability (Papp) was below 1 ×10⁻⁶ cm/s.

`Cc1cc2c(C(N)=O)cccc2n1-c1nc2c(c(NCc3ccccc3)n1)COCC2` displayed a Papp of 597 ×10⁻⁶ cm/s.

In turn, `Cc1ccccc1C(=O)N1CCc2cc(-n3cc(NC(=O)Cc4ccccc4)cn3)ccc21` came in with an apparent permeability coefficient (Papp) of 82.6 ×10⁻⁶ cm/s.

As to `CCN(CC)C(=O)c1sc2c(c1C)c(=O)n(Cc1ccccc1)c(=O)n2CC(=O)Nc1ccc(OC)cc1`, the apparent permeability coefficient (Papp) was above 1000 ×10⁻⁶ cm/s.

For `O=C(O)c1ccccc1-c1ccc(/C=c2\sc3nc4cc(Br)cnc4n3c2=O)o1`, the apparent permeability (Papp) turned out to be 12.3 ×10⁻⁶ cm/s.

As to `COC(=O)c1c(NC(=O)Cc2coc3cc(C)ccc23)sc2c1CCC2`, the apparent permeability coefficient (Papp) is 26 ×10⁻⁶ cm/s.

`O=C(Nc1nc(-c2ccccn2)cs1)c1cccc(S(=O)(=O)N2CCOCC2)c1`: the apparent permeability coefficient (Papp) turned out to be 657 ×10⁻⁶ cm/s.

In the case of `COc1cc2cc(CN3CCC(N(C)C)C3)c(-c3cccc(Cl)c3)nc2cc1OC` (centres undefined), the Papp was above 1000 ×10⁻⁶ cm/s.

`COc1ccc(-c2ccc(C(=O)NC3CC(c4cc(=O)[nH]c(N)n4)C3)o2)cc1` (centres undefined) registered a Papp of 20.9 ×10⁻⁶ cm/s.

In turn, `Cc1cnc(CNc2nc(-c3cccc(NS(C)(=O)=O)c3)nc3ccccc23)cn1` had an apparent permeability coefficient (Papp) above 1000 ×10⁻⁶ cm/s.

On to `CN(C)c1cccc(-c2cnc(N3CCC(c4ncc[nH]4)CC3)s2)c1`, for which the apparent permeability coefficient (Papp) is 955 ×10⁻⁶ cm/s.

Take `Fc1cc(Nc2nc(-c3ccncc3)nc3ccccc23)ccc1C(F)(F)F`: the Papp came out at 641 ×10⁻⁶ cm/s.

The molecule `O=C(O)c1ccnc2cc(C(OCCN3CCCCC3)c3ccccc3Cl)[nH]c12` (centres undefined) yielded an apparent permeability (Papp) below 1 ×10⁻⁶ cm/s.

Consider `Cc1ccc(S(=O)(=O)Nc2ccc(OC(F)(F)F)cc2C(=O)Nc2nc(-c3ccccc3)cs2)cc1`, for which the Papp came to 1.6 ×10⁻⁶ cm/s.

Regarding `Clc1cccc(Nc2nc(-c3ccncc3)nc3ccccc23)c1`, the apparent permeability coefficient (Papp) is 250 ×10⁻⁶ cm/s.

`COc1cccc(CNc2ccc(S(=O)(=O)Nc3ccc(C4CCNCC4)cc3)cc2)c1O` came in with a Papp of 1.79 ×10⁻⁶ cm/s.

As to `COc1ccc(NC(=O)CCCc2nnc3n(CCC(C)C)c(=O)c4sccc4n23)cc1Cl`, the Papp was above 1000 ×10⁻⁶ cm/s.

`CCCCCn1c(=O)[nH]c2cc(C(=O)NCCCN3CCCCC3)ccc2c1=O` showed an apparent permeability coefficient (Papp) of 27.5 ×10⁻⁶ cm/s.

`COc1ccc(-n2nc(C3CCCN([S+](=O)([O-])c4cccc(C(F)(F)F)c4)C3)[nH]c2=O)cc1` (centres undefined) had a Papp of 569 ×10⁻⁶ cm/s.

`Cc1ccc(S(=O)(=O)Nc2ccccc2C(=O)Nc2nc(-c3ccccc3)c(C)s2)cc1` gave an apparent permeability coefficient (Papp) of 30.1 ×10⁻⁶ cm/s.

As for `COC(=O)[C@@]12OC[C@]34[C@H]([C@@H](O)[C@@H]1O)[C@@]1(C)CC(=O)C(O)=C(C)[C@@H]1C[C@H]3OC(=O)[C@H](OC(=O)/C=C(\C)C(C)C)[C@@H]24`, the Papp came to 120 ×10⁻⁶ cm/s.

In turn, `CSc1nc(N)cc(Oc2ccc(-c3nc(Nc4cccc(C(F)(F)F)c4)n[nH]3)cc2)n1` returned a Papp of 633 ×10⁻⁶ cm/s.

`Cc1ccc(NC2=C(c3ccc(C(F)(F)F)cc3)C(=O)c3ccccc32)cc1F` returned a Papp below 1 ×10⁻⁶ cm/s.
